Experimental data published in PubChem BioAssay AID328 (DTP/NCI, 2004).
Values joined by “and” are separate entries in the source; they are usually repeats but may differ in a detail not shown here. Equal entries are not always repeated. Toxic doses and inconclusive results are not listed.

Test system: BDF1 mice, P388 leukemia ip, median survival T/C
Assay: NCI In Vivo Anticancer Drug Screen. Data for tumor model P388 Leukemia (intraperitoneal) in B6D2F1 (BDF1) mice
Conditions: endpoint: median survival time, higher = longer survival
In short: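 Compound-treated tumour-bearing mice were compared with vehicle-treated controls. Survival was recorded, and the value is the treated-group measurement divided by the control-group measurement (T/C).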

[1] = dose: 100.0 mg/kg/injection, schedule: Q04DX003 (ip), vehicle: saline with Tween-80
[2] = dose: 200.0 mg/kg/injection, schedule: Q04DX003 (ip), vehicle: saline with Tween-80
[3] = dose: 400.0 mg/kg/injection, schedule: Q04DX003 (ip), vehicle: saline with Tween-80
[4] = dose: 25.0 mg/kg/injection, schedule: Q01DX009 (ip), vehicle: Klucel (hydroxypropylcellulose) (HPC)
[5] = dose: 50.0 mg/kg/injection, schedule: Q01DX009 (ip), vehicle: Klucel (hydroxypropylcellulose) (HPC)
[6] = dose: 100.0 mg/kg/injection, schedule: Q01DX009 (ip), vehicle: Klucel (hydroxypropylcellulose) (HPC)
[7] = dose: 100.0 mg/kg/injection, schedule: Q04DX003 (ip), vehicle: Klucel (hydroxypropylcellulose) (HPC)
[8] = dose: 200.0 mg/kg/injection, schedule: Q04DX003 (ip), vehicle: Klucel (hydroxypropylcellulose) (HPC)
[9] = dose: 50.0 mg/kg/injection, schedule: Q01DX009 (ip), vehicle: saline with Tween-80
[10] = dose: 100.0 mg/kg/injection, schedule: Q01DX009 (ip), vehicle: saline with Tween-80
[11] = dose: 200.0 mg/kg/injection, schedule: Q01DX009 (ip), vehicle: saline with Tween-80
[12] = dose: 50.0 mg/kg/injection, schedule: Q04DX003 (ip), vehicle: Klucel (hydroxypropylcellulose) (HPC)
[13] = dose: 200.0 mg/kg/injection, schedule: Q01DX009 (ip), vehicle: Klucel (hydroxypropylcellulose) (HPC)

`CC1(C2CC2)NC(=O)NC1=O` (stereo not drawn) was tested, and the T/C (dose: 75.0 mg/kg/injection, schedule: Q01DX009 (ip), vehicle: saline) was 113 % of control, the T/C (dose: 100.0 mg/kg/injection, schedule: Q01DX001 (ip), vehicle: saline) was 113 % of control and the T/C (dose: 150.0 mg/kg/injection, schedule: Q01DX009 (ip), vehicle: saline) was 104 % of control. For the same molecule, the T/C (dose: 200.0 mg/kg/injection, schedule: Q01DX001 (ip), vehicle: saline) was 104 % of control, the T/C (dose: 300.0 mg/kg/injection, schedule: Q01DX009 (ip), vehicle: saline) was 100 % of control and the T/C (dose: 400.0 mg/kg/injection, schedule: Q01DX001 (ip), vehicle: saline) was 104 % of control.

For `O=[N+]([O-])c1cccc(OCCOc2ccccc2)c1`, the T/C [1] was 100 % of control, the T/C [2] was 115 % of control and the T/C [3] was 105 % of control.

For `CS(=O)(=O)OCCNC[C@@H](O)[C@@H](O)CNCCOS(C)(=O)=O`, the T/C (dose: 0.17 mg/kg/injection, schedule: Q04DX003 (ip), vehicle: saline) was 121 % of control, the T/C (dose: 0.26 mg/kg/injection, schedule: Q04DX003 (ip), vehicle: saline) was 117 % of control and the T/C (dose: 0.4 mg/kg/injection, schedule: Q04DX003 (ip), vehicle: saline) was 154 % of control. The T/C (dose: 0.6 mg/kg/injection, schedule: Q04DX003 (ip), vehicle: saline) was 170 % of control, the T/C (dose: 0.92 mg/kg/injection, schedule: Q04DX003 (ip), vehicle: saline) was 175 % of control and the T/C (dose: 1.3 mg/kg/injection, schedule: Q04DX003 (ip), vehicle: saline) was 175 % of control. The T/C (dose: 2.1 mg/kg/injection, schedule: Q04DX003 (ip), vehicle: saline) was 186 % of control, the T/C (dose: 3.1 mg/kg/injection, schedule: Q04DX003 (ip), vehicle: saline) was 168 % of control and the T/C (dose: 11.0 mg/kg/injection, schedule: Q04DX003 (ip), vehicle: saline) was 200 % of control. For the same molecule, the T/C (dose: 16.0 mg/kg/injection, schedule: Q04DX003 (ip), vehicle: saline) was 243 % of control and the T/C (dose: 33.0 mg/kg/injection, schedule: Q04DX003 (ip), vehicle: saline) was 300 % of control and 118 % of control.

`NNC(=O)c1c[nH]c2ccccc2c1=O` was tested, and the T/C (dose: 12.5 mg/kg/injection, schedule: Q01DX009 (ip), vehicle: Klucel (hydroxypropylcellulose) (HPC)) was 104 % of control, the T/C [4] was 104 % of control and the T/C [5] was 91 % of control. The T/C (dose: 75.0 mg/kg/injection, schedule: Q01DX009 (ip), vehicle: Klucel (hydroxypropylcellulose) (HPC)) was 108 % of control, the T/C (dose: 115.0 mg/kg/injection, schedule: Q01DX009 (ip), vehicle: Klucel (hydroxypropylcellulose) (HPC)) was 91 % of control and the T/C (dose: 170.0 mg/kg/injection, schedule: Q01DX009 (ip), vehicle: Klucel (hydroxypropylcellulose) (HPC)) was 95 % of control.

In the case of `Cc1cc(=O)[nH]c(N/N=C2/CCCCC2C)n1` (stereo not drawn), the T/C (dose: 8.0 mg/kg/injection, schedule: Q01DX009 (ip), vehicle: Klucel (hydroxypropylcellulose) (HPC)) is reported as 107 % of control, the T/C (dose: 16.0 mg/kg/injection, schedule: Q01DX009 (ip), vehicle: Klucel (hydroxypropylcellulose) (HPC)) is reported as 107 % of control and the T/C (dose: 33.0 mg/kg/injection, schedule: Q01DX009 (ip), vehicle: Klucel (hydroxypropylcellulose) (HPC)) is reported as 100 % of control. For the same molecule, the T/C [6] was 100 % of control, the T/C [7] was 109 % of control and the T/C [8] was 95 % of control.

With `Cc1c2ccnc(-c3ccccc3)c2cc2c1[nH]c1ccccc12` the T/C [9] was 102 % of control, the T/C [10] was 100 % of control and the T/C [11] was 102 % of control.

In the case of `Nc1n[nH]c(N)n1.[Ni]`, the T/C [10] is reported as 100 % of control, the T/C [1] is reported as 91 % of control and the T/C [11] is reported as 95 % of control and 115 % of control. The T/C [2] was 87 % of control, the T/C (dose: 400.0 mg/kg/injection, schedule: Q01DX009 (ip), vehicle: saline with Tween-80) was 109 % of control and the T/C [3] was 100 % of control.

For `O=S1(=O)OCc2ccccc21`, the T/C [5] was 108 % of control, the T/C [12] was 86 % of control and the T/C [6] was 91 % of control. The T/C [7] was 100 % of control and 104 % of control and the T/C [8] was 92 % of control and 95 % of control.

For `O=C(Nc1ccc(Cl)cc1)c1ccccc1`, the T/C [5] was 122 % of control, the T/C [12] was 95 % of control and the T/C [6] was 95 % of control. For the same molecule, the T/C [7] was 91 % of control, the T/C [13] was 90 % of control and the T/C [8] was 100 % of control.

In the case of `O=c1oc(-c2ccccc2)nc2cc(Cl)ccc12`, the T/C (dose: 50.0 mg/kg/injection, schedule: Q04DX003 (ip), vehicle: saline with Tween-80) is reported as 100 % of control and 109 % of control, the T/C [1] is reported as 100 % of control and 109 % of control and the T/C [2] is reported as 104 % of control.

With `CCOC(=O)C1CC=CCC1C(=O)OCC` (stereo not drawn) the T/C (dose: 100.0 mg/kg/injection, schedule: Q04DX003 (ip), vehicle: saline) was 118 % of control, the T/C (dose: 200.0 mg/kg/injection, schedule: Q04DX003 (ip), vehicle: saline) was 118 % of control and the T/C (dose: 400.0 mg/kg/injection, schedule: Q04DX003 (ip), vehicle: saline) was 109 % of control.

For `CCOc1ccc2nc(N)sc2c1`, the T/C [4] was 118 % of control, the T/C [5] was 109 % of control and the T/C (dose: 100.0 mg/kg/injection, schedule: Q01DX001 (ip), vehicle: Klucel (hydroxypropylcellulose) (HPC)) was 86 % of control. The T/C [6] was 104 % of control and 109 % of control, the T/C [7] was 104 % of control and the T/C (dose: 200.0 mg/kg/injection, schedule: Q01DX001 (ip), vehicle: Klucel (hydroxypropylcellulose) (HPC)) was 100 % of control. For the same molecule, the T/C [8] was 95 % of control and the T/C (dose: 400.0 mg/kg/injection, schedule: Q04DX003 (ip), vehicle: Klucel (hydroxypropylcellulose) (HPC)) was 91 % of control.

`CN1CCN(CCCN2c3ccccc3Sc3ccc(Cl)cc32)CC1` was tested, and the T/C (dose: 6.25 mg/kg/injection, schedule: Q01DX009 (ip), vehicle: saline) was 113 % of control and the T/C (dose: 12.5 mg/kg/injection, schedule: Q01DX009 (ip), vehicle: saline) was 109 % of control.

For `COc1ccc(C(C)=O)cc1CO/N=C1\CSCc2ccccc21`, the T/C [9] was 101 % of control, the T/C [10] was 119 % of control and the T/C [11] was 108 % of control.

With `CCCCCCCCCCCCCC(C)NCc1ccccc1` (stereo not drawn) the T/C (dose: 3.13 mg/kg/injection, schedule: Q01DX009 (ip), vehicle: saline with Tween-80) was 95 % of control, the T/C (dose: 6.25 mg/kg/injection, schedule: Q01DX009 (ip), vehicle: saline with Tween-80) was 100 % of control and the T/C (dose: 12.5 mg/kg/injection, schedule: Q01DX009 (ip), vehicle: saline with Tween-80) was 100 % of control.

`O=C(O)CCCNSc1ccccc1[N+](=O)[O-]` was tested, and the T/C [10] was 124 % of control.

In the case of `CCOC(=O)C1C(=O)C2CCc3c(ccc4ccccc34)N2C1=O` (stereo not drawn), the T/C [5] is reported as 100 % of control, the T/C [12] is reported as 95 % of control and the T/C [6] is reported as 110 % of control. For the same molecule, the T/C [7] was 95 % of control, the T/C [13] was 100 % of control and the T/C [8] was 100 % of control.

In the case of `COC(=O)CCc1ccc(NP(=O)(N2CC2)N2CC2)cc1`, the T/C (dose: 66.0 mg/kg/injection, schedule: Q01DX009 (ip), vehicle: saline with Tween-80) is reported as 177 % of control and the T/C (dose: 300.0 mg/kg/injection, schedule: Q04DX003 (ip), vehicle: saline with Tween-80) is reported as 154 % of control.

With `CCOP(=O)(OCC)SCSC(C)C` the T/C (dose: 0.19 mg/kg/injection, schedule: Q01DX009 (ip), vehicle: Klucel (hydroxypropylcellulose) (HPC)) was 88 % of control and the T/C (dose: 3.12 mg/kg/injection, schedule: Q01DX009 (ip), vehicle: Klucel (hydroxypropylcellulose) (HPC)) was 96 % of control.

In the case of `NCCCn1c2ccccc2c2cnccc21`, the T/C (dose: 5.0 mg/kg/injection, schedule: Q01DX009 (ip), vehicle: water) is reported as 105 % of control, the T/C (dose: 10.0 mg/kg/injection, schedule: Q01DX009 (ip), vehicle: water) is reported as 94 % of control and the T/C (dose: 20.0 mg/kg/injection, schedule: Q01DX009 (ip), vehicle: water) is reported as 119 % of control. The T/C (dose: 25.0 mg/kg/injection, schedule: Q01DX009 (ip), vehicle: water) was 91 % of control, the T/C (dose: 25.0 mg/kg/injection, schedule: Q04DX003 (ip), vehicle: water) was 103 % of control and the T/C (dose: 40.0 mg/kg/injection, schedule: Q01DX009 (ip), vehicle: water) was 119 % of control. For the same molecule, the T/C (dose: 50.0 mg/kg/injection, schedule: Q04DX003 (ip), vehicle: water) was 107 % of control and the T/C (dose: 100.0 mg/kg/injection, schedule: Q04DX003 (ip), vehicle: water) was 99 % of control.
